Data: publication PMC10486429, “Investigations Using Albumin Binders to Modify the Tissue Distribution Profile of Radiopharmaceuticals Exemplified with Folate Radioconjugates” (Cancers, 2023)
Each block holds one compound with its values, some of them ahead of it.

Key:
[1] = tested on: KB tumor-bearing athymic nude mice; experiment: Biodistribution of 177Lu-RedFols in KB tumor-bearing mice; type: in vivo, mouse
Description: Athymic nude mice (Crl:CD1-Foxn^nu) were kept on a folate-deficient rodent diet (ssniff Spezialdiäten GmbH, Soest, Germany) for at least one week prior to inoculation with the tumor cells. Biodistribution studies were performed approx. two weeks after subcutaneous inoculation with KB tumor cells (5 × 10^6 in 100 μL PBS) (Supplementary Materials Section S12). […] Data were presented as the average ± SD of n = 3−4 mice.
Purpose: Biodistribution studies were performed in KB tumor-bearing athymic nude mice (Crl:CD1-Foxnnu) in order to investigate the tissue distribution profiles of the novel radioconjugates. The aim was to compare the impact of the two different albumin binders (4-(p-iodophenyl)butanoate unit vs. 5-(p-iodophenyl)pentanoate unit), and that of the in-corporation of an AMBA linker adjacent to the albumin binder on the distribution profile of the resulting folate radioconjugates.
Methods: The methods are described in the main article. The mice were sacrificed at […]

[2] = n-octanol/PBS distribution coefficient (shake-flask) of 177Lu-RedFols; type: physicochemical; settings: n-octanol/PBS pH 7.4
Description: The radiolytic stability of ^177Lu-RedFols (50 MBq/nmol) in PBS pH 7.4 was investigated at an activity concentration of 100 MBq in 500 µL over 24 h at room temperature. The n-octanol/PBS distribution coefficients (logD values) of the folate radioconjugates (50 MBq/nmol) were determined using the same shake-flask method as used for the ^177Lu-DOTA-ALBs, including statistical analysis (Supplementary Material, Section S4). […]
S4. n-Octanol/PBS Distribution Coefficient of 177Lu-DOTA-ALBs
Purpose: The n-octanol/PBS distribution coefficients (logD values) were determined for all 177Lu-DOTA-ALBs in order to assess their hydrophilic/hydrophobic properties.
Methods: The n-octanol/PBS distribution coefficients (logD values) of the 177Lu-DOTA-ALBs were determined as previously described. […] 4 . […]
The vials were vortexed vigorously for 1 min followed by centrifugation for 6 min at 560 rcf for phase separation. An aliquot was taken from each phase and measured in a γ-counter (Perkin Elmer, Wallac Wizard 1480, Waltham, MA, USA). The distribution coeffi-cients were calculated as the logarithm of the ratio of counts per minute (cpm) measured in the n-octanol phase relative to the cpm measured in the PBS phase. The results were listed as the average ± standard deviation (SD) of the data obtained from 2–3 independent experiments, each performed with five replicates. […]

Structure (SMILES): CN1c2c(nc(N)[nH]c2=O)NC[C@H]1CNc1ccc(C(=O)N[C@@H](CCC(=O)N[C@@H](CCCCNC(=O)CN2CCN(CC(=O)O)CCN(CC(=O)O)CCN(CC(=O)O)CC2)C(=O)N[C@@H](CCCCNC(=O)c2ccc(CNC(=O)CCCCc3ccc(I)cc3)cc2)C(=O)O)C(=O)O)cc1 [[^177Lu]Lu-6R-RedFol-25, metal not drawn]
Blood, accumulated activity ([1]; 1 h p.i.): 13 ± 3 % IA/g
Bone, accumulated activity ([1]; 1 h p.i.): 1.5 ± 0.3 % IA/g
Intestines, accumulated activity ([1]; 1 h p.i.): 1.7 ± 0.3 % IA/g
KB tumor, accumulated activity ([1]; 1 h p.i.): 15 ± 1 % IA/g
Kidneys, accumulated activity ([1]; 1 h p.i.): 22 ± 3 % IA/g
Liver, accumulated activity ([1]; 1 h p.i.): 2.3 ± 0.6 % IA/g
Lung, accumulated activity ([1]; 1 h p.i.): 5.8 ± 1.7 % IA/g
Muscle, accumulated activity ([1]; 1 h p.i.): 1.4 ± 0.1 % IA/g
Salivary glands, accumulated activity ([1]; 1 h p.i.): 4.7 ± 3.3 % IA/g
Spleen, accumulated activity ([1]; 1 h p.i.): 1.7 ± 0.3 % IA/g
Stomach, accumulated activity ([1]; 1 h p.i.): 1.7 ± 0.2 % IA/g
Tumor-to-blood ratio ([1]; 1 h p.i.): 1.2 ± 0.4
Tumor-to-kidney ratio ([1]; 1 h p.i.): 0.67 ± 0.07
Tumor-to-liver ratio ([1]; 1 h p.i.): 6.8 ± 2.4
Blood, accumulated activity ([1]; 4 h p.i.): 6.1 ± 0.5 % IA/g
Bone, accumulated activity ([1]; 4 h p.i.): 1.1 ± 0.1 % IA/g
Intestines, accumulated activity ([1]; 4 h p.i.): 0.78 ± 0.15 % IA/g
KB tumor, accumulated activity ([1]; 4 h p.i.): 30 ± 3 % IA/g
Kidneys, accumulated activity ([1]; 4 h p.i.): 39 ± 2 % IA/g
Liver, accumulated activity ([1]; 4 h p.i.): 2.1 ± 0.2 % IA/g
Lung, accumulated activity ([1]; 4 h p.i.): 3.4 ± 0.1 % IA/g
Muscle, accumulated activity ([1]; 4 h p.i.): 1.3 ± 0.2 % IA/g
Salivary glands, accumulated activity ([1]; 4 h p.i.): 4.8 ± 3.2 % IA/g
Spleen, accumulated activity ([1]; 4 h p.i.): 1.2 ± 0.1 % IA/g
Stomach, accumulated activity ([1]; 4 h p.i.): 1.1 ± 0.1 % IA/g
Tumor-to-blood ratio ([1]; 4 h p.i.): 4.9 ± 0.2
Tumor-to-kidney ratio ([1]; 4 h p.i.): 0.78 ± 0.11
Tumor-to-liver ratio ([1]; 4 h p.i.): 14 ± 1
Blood, accumulated activity ([1]; 24 h p.i.): 0.16 ± 0.08 % IA/g
Bone, accumulated activity ([1]; 24 h p.i.): 0.50 ± 0.12 % IA/g
Intestines, accumulated activity ([1]; 24 h p.i.): 0.26 ± 0.06 % IA/g
KB tumor, accumulated activity ([1]; 24 h p.i.): 34 ± 5 % IA/g
Kidneys, accumulated activity ([1]; 24 h p.i.): 48 ± 4 % IA/g
Liver, accumulated activity ([1]; 24 h p.i.): 1.5 ± 0.2 % IA/g
Lung, accumulated activity ([1]; 24 h p.i.): 0.78 ± 0.23 % IA/g
Muscle, accumulated activity ([1]; 24 h p.i.): 1.1 ± 0.6 % IA/g
Salivary glands, accumulated activity ([1]; 24 h p.i.): 3.1 ± 2.0 % IA/g
Spleen, accumulated activity ([1]; 24 h p.i.): 0.60 ± 0.04 % IA/g
Stomach, accumulated activity ([1]; 24 h p.i.): 0.44 ± 0.06 % IA/g
Tumor-to-blood ratio ([1]; 24 h p.i.): 247 ± 101
Tumor-to-kidney ratio ([1]; 24 h p.i.): 0.72 ± 0.15
Tumor-to-liver ratio ([1]; 24 h p.i.): 23 ± 7
logD Values [2]: −3.0 ± 0.1

Structure (SMILES): CN1c2c(nc(N)[nH]c2=O)NCC1CNc1ccc(C(=O)NC(CCC(=O)NC(CCCCNC(=O)CN2CCN(CC(=O)[O-])CCN(CC(=O)[O-])CCN(CC(=O)[O-])CC2)C(=O)NC(CCCCNC(=O)c2ccc(CNC(=O)CCCCc3ccc(I)cc3)cc2)C(=O)O)C(=O)O)cc1.[177Lu+3] (stereo not drawn) [[^177Lu]Lu-6S-RedFol-25]
Blood, accumulated activity ([1]; 1 h p.i.): 13 ± 2 % IA/g
Bone, accumulated activity ([1]; 1 h p.i.): 1.4 ± 0.2 % IA/g
Intestines, accumulated activity ([1]; 1 h p.i.): 1.3 ± 0.3 % IA/g
KB tumor, accumulated activity ([1]; 1 h p.i.): 17 ± 2 % IA/g
Kidneys, accumulated activity ([1]; 1 h p.i.): 38 ± 5 % IA/g
Liver, accumulated activity ([1]; 1 h p.i.): 2.3 ± 0.1 % IA/g
Lung, accumulated activity ([1]; 1 h p.i.): 5.5 ± 0.8 % IA/g
Muscle, accumulated activity ([1]; 1 h p.i.): 1.2 ± 0.2 % IA/g
Salivary glands, accumulated activity ([1]; 1 h p.i.): 2.2 ± 1.5 % IA/g
Spleen, accumulated activity ([1]; 1 h p.i.): 1.4 ± 0.2 % IA/g
Stomach, accumulated activity ([1]; 1 h p.i.): 1.3 ± 0.2 % IA/g
Tumor-to-blood ratio ([1]; 1 h p.i.): 1.3 ± 0.1
Tumor-to-kidney ratio ([1]; 1 h p.i.): 0.45 ± 0.02
Tumor-to-liver ratio ([1]; 1 h p.i.): 7.4 ± 0.6
Blood, accumulated activity ([1]; 4 h p.i.): 8.4 ± 2.8 % IA/g
Bone, accumulated activity ([1]; 4 h p.i.): 1.1 ± 0.4 % IA/g
Intestines, accumulated activity ([1]; 4 h p.i.): 1.2 ± 0.4 % IA/g
KB tumor, accumulated activity ([1]; 4 h p.i.): 32 ± 8 % IA/g
Kidneys, accumulated activity ([1]; 4 h p.i.): 88 ± 23 % IA/g
Liver, accumulated activity ([1]; 4 h p.i.): 1.9 ± 0.5 % IA/g
Lung, accumulated activity ([1]; 4 h p.i.): 4.1 ± 1.4 % IA/g
Muscle, accumulated activity ([1]; 4 h p.i.): 0.92 ± 0.27 % IA/g
Salivary glands, accumulated activity ([1]; 4 h p.i.): 1.9 ± 1.1 % IA/g
Spleen, accumulated activity ([1]; 4 h p.i.): 1.3 ± 0.3 % IA/g
Stomach, accumulated activity ([1]; 4 h p.i.): 1.0 ± 0.4 % IA/g
Tumor-to-blood ratio ([1]; 4 h p.i.): 4.0 ± 1.2
Tumor-to-kidney ratio ([1]; 4 h p.i.): 0.37 ± 0.05
Tumor-to-liver ratio ([1]; 4 h p.i.): 18 ± 5
Blood, accumulated activity ([1]; 24 h p.i.): 0.15 ± 0.09 % IA/g
Bone, accumulated activity ([1]; 24 h p.i.): 0.14 ± 0.05 % IA/g
Intestines, accumulated activity ([1]; 24 h p.i.): 0.10 ± 0.03 % IA/g
KB tumor, accumulated activity ([1]; 24 h p.i.): 37 ± 4 % IA/g
Kidneys, accumulated activity ([1]; 24 h p.i.): 121 ± 13 % IA/g
Liver, accumulated activity ([1]; 24 h p.i.): 0.56 ± 0.07 % IA/g
Lung, accumulated activity ([1]; 24 h p.i.): 0.27 ± 0.06 % IA/g
Muscle, accumulated activity ([1]; 24 h p.i.): 0.10 ± 0.02 % IA/g
Salivary glands, accumulated activity ([1]; 24 h p.i.): 0.49 ± 0.04 % IA/g
Spleen, accumulated activity ([1]; 24 h p.i.): 0.42 ± 0.05 % IA/g
Stomach, accumulated activity ([1]; 24 h p.i.): 0.13 ± 0.04 % IA/g
Tumor-to-blood ratio ([1]; 24 h p.i.): 316 ± 150
Tumor-to-kidney ratio ([1]; 24 h p.i.): 0.31 ± 0.02
Tumor-to-liver ratio ([1]; 24 h p.i.): 67 ± 16
logD Values [2]: −3.0 ± 0.1

Blood, accumulated activity ([1]; 1 h p.i.): 9.0 ± 1.2 % IA/g
Bone, accumulated activity ([1]; 1 h p.i.): 1.2 ± 0.1 % IA/g
Intestines, accumulated activity ([1]; 1 h p.i.): 1.2 ± 0.3 % IA/g
KB tumor, accumulated activity ([1]; 1 h p.i.): 17 ± 2 % IA/g
Kidneys, accumulated activity ([1]; 1 h p.i.): 36 ± 4 % IA/g
Liver, accumulated activity ([1]; 1 h p.i.): 2.6 ± 0.7 % IA/g
Lung, accumulated activity ([1]; 1 h p.i.): 4.6 ± 0.3 % IA/g
Muscle, accumulated activity ([1]; 1 h p.i.): 1.4 ± 0.1 % IA/g
Salivary glands, accumulated activity ([1]; 1 h p.i.): 6.4 ± 0.1 % IA/g
Spleen, accumulated activity ([1]; 1 h p.i.): 1.3 ± 0.2 % IA/g
Stomach, accumulated activity ([1]; 1 h p.i.): 1.5 ± 0.1 % IA/g
Tumor-to-blood ratio ([1]; 1 h p.i.): 2.0 ± 0.4
Tumor-to-kidney ratio ([1]; 1 h p.i.): 0.48 ± 0.02
Tumor-to-liver ratio ([1]; 1 h p.i.): 6.9 ± 1.6
Blood, accumulated activity ([1]; 4 h p.i.): 3.2 ± 1.8 % IA/g
Bone, accumulated activity ([1]; 4 h p.i.): 0.87 ± 0.21 % IA/g
Intestines, accumulated activity ([1]; 4 h p.i.): 0.83 ± 0.37 % IA/g
KB tumor, accumulated activity ([1]; 4 h p.i.): 34 ± 6 % IA/g
Kidneys, accumulated activity ([1]; 4 h p.i.): 57 ± 5 % IA/g
Liver, accumulated activity ([1]; 4 h p.i.): 1.9 ± 0.4 % IA/g
Lung, accumulated activity ([1]; 4 h p.i.): 2.4 ± 1.1 % IA/g
Muscle, accumulated activity ([1]; 4 h p.i.): 1.3 ± 0.2 % IA/g
Salivary glands, accumulated activity ([1]; 4 h p.i.): 8.7 ± 0.9 % IA/g
Spleen, accumulated activity ([1]; 4 h p.i.): 0.83 ± 0.25 % IA/g
Stomach, accumulated activity ([1]; 4 h p.i.): 1.4 ± 0.5 % IA/g
Tumor-to-blood ratio ([1]; 4 h p.i.): 12 ± 5
Tumor-to-kidney ratio ([1]; 4 h p.i.): 0.59 ± 0.04
Tumor-to-liver ratio ([1]; 4 h p.i.): 18 ± 3
Blood, accumulated activity ([1]; 24 h p.i.): 0.06 ± 0.01 % IA/g
Bone, accumulated activity ([1]; 24 h p.i.): 0.49 ± 0.09 % IA/g
Intestines, accumulated activity ([1]; 24 h p.i.): 0.28 ± 0.11 % IA/g
KB tumor, accumulated activity ([1]; 24 h p.i.): 33 ± 2 % IA/g
Kidneys, accumulated activity ([1]; 24 h p.i.): 62 ± 11 % IA/g
Liver, accumulated activity ([1]; 24 h p.i.): 1.2 ± 0.2 % IA/g
Lung, accumulated activity ([1]; 24 h p.i.): 0.60 ± 0.07 % IA/g
Muscle, accumulated activity ([1]; 24 h p.i.): 0.75 ± 0.20 % IA/g
Salivary glands, accumulated activity ([1]; 24 h p.i.): 4.5 ± 0.8 % IA/g
Spleen, accumulated activity ([1]; 24 h p.i.): 0.51 ± 0.13 % IA/g
Stomach, accumulated activity ([1]; 24 h p.i.): 0.54 ± 0.12 % IA/g
Tumor-to-blood ratio ([1]; 24 h p.i.): 583 ± 105
Tumor-to-kidney ratio ([1]; 24 h p.i.): 0.54 ± 0.07
Tumor-to-liver ratio ([1]; 24 h p.i.): 28 ± 7
logD [2]: -3.4 ± 0.2
Structure (SMILES): CN1c2c(nc(N)[nH]c2=O)NC[C@H]1CNc1ccc(C(=O)N[C@@H](CCC(=O)N[C@@H](CCCCNC(=O)CN2CCN(CC(=O)O)CCN(CC(=O)O)CCN(CC(=O)O)CC2)C(=O)N[C@@H](CCCCNC(=O)CCCCc2ccc(I)cc2)C(=O)O)C(=O)O)cc1 [[^177Lu]Lu-6R-RedFol-24, metal not drawn]
